{"source": "patent US3959351A", "about": "“Haloalkylbenzoyl esters of di-lower alkylamino alkanols and quaternary lower alkyl salts thereof” (priority 1972, dated 1976)", "target": "electric eel cholinesterase (Type V) (Electrophorus electricus, UniProt O42275)", "sequence (O42275 24-633)": "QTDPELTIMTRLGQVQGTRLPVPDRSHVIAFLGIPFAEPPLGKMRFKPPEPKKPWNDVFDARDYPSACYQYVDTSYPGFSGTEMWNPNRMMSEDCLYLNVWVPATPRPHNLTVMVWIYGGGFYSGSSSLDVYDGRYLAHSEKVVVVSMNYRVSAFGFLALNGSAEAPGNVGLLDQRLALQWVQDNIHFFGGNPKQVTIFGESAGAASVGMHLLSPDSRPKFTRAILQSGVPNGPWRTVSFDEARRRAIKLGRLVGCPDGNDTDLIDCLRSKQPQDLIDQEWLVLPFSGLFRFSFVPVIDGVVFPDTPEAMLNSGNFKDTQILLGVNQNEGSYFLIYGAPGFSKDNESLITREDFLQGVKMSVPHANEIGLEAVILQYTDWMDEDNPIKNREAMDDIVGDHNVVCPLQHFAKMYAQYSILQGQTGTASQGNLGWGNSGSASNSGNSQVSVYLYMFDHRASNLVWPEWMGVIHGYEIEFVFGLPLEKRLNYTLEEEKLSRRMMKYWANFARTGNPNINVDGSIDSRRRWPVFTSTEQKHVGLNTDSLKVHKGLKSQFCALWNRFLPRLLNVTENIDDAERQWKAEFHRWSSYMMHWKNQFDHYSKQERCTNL", "test": "Inhibition of electric eel cholinesterase (Type V) by substituted benzoyl cholines (method of Rappaport et al.)", "assay_type": "biochemical", "conditions": "incubated with enzyme at room temperature (22°) for 40 minutes", "experimental": "As stated heretofore, the compounds of the present invention when tested for inhibition of eel cholinesterase show good activity at rather low concentrations. Inhibition of cholinesterase activity of generally recognized as having positive correlation which insecticidal activity.\nINHIBITION OF ELECTRIC EEL CHOLINESTERASE (TYPE V)\nBY SUBSTITUTED BENZOYL CHOLINES\nActivity Measurement Method:\n*Reagent incubated with enzyme at room temperature (22°) for 40", "key": {"[1]": {"conditions": "Bromomethyl- reagent type, concentration 10^-^4 M"}, "[2]": {"conditions": "Bromomethyl- reagent type, concentration 10^-^6 M"}, "[3]": {"conditions": "40 min, Bromomethyl- reagent type, concentration 10^-^4 M"}, "[4]": {"conditions": "40 min, Formyl- reagent type, concentration 10^-^4 M"}, "[5]": {"conditions": "Formyl- reagent type, concentration 10^-^3 M"}, "[6]": {"conditions": "Formyl- reagent type, concentration 10^-^4 M"}}}
{"smiles": "C[N+](C)(C)CCOC(=O)c1ccc(CBr)cc1.[I-]", "note": "[para Bromomethyl-, para-bromomethyl benzoyl choline iodide]", "values": [{"measurement": "INHIBITION", "setting": "[1]", "value": "Complete"}, {"measurement": "INHIBITION", "setting": "[2]", "value": "None"}]}
{"smiles": "C[N+](C)(C)CCOC(=O)c1cc(CBr)cc(CBr)c1.[I-]", "note": "[3,5 Bromomethyl-, 3,5-di(bromomethyl)benzoyl choline iodide]", "values": [{"measurement": "inhibition at 100 µM", "setting": "[3]", "value": 90, "unit": "%"}, {"measurement": "INHIBITION", "setting": "[2]", "value": "None"}]}
{"smiles": "C[N+](C)(C)CCOC(=O)c1cc(C=O)ccc1C=O.[I-]", "note": "[2,5 Formyl-, 2,5-diformylbenzoyl choline iodide]", "values": [{"measurement": "inhibition at 100 µM", "setting": "[4]", "value": 50, "unit": "%"}, {"measurement": "INHIBITION", "setting": "[5]", "value": "Complete"}]}
{"smiles": "C[N+](C)(C)CCOC(=O)c1cccc(CBr)c1CBr.[I-]", "note": "[2,3 Bromomethyl-, 2,3-di(bromomethyl)benzoyl choline iodide]", "values": [{"measurement": "inhibition at 100 µM", "setting": "[3]", "value": 40, "unit": "%"}, {"measurement": "INHIBITION", "setting": "[2]", "value": "None"}]}
{"smiles": "C[N+](C)(C)CCOC(=O)c1cccc(CBr)c1.[I-]", "note": "[meta Bromomethyl-, m-bromomethyl benzoyl choline iodide]", "values": [{"measurement": "INHIBITION", "setting": "[1]", "value": "None"}, {"measurement": "INHIBITION", "setting": "[2]", "value": "None"}]}
{"smiles": "C[N+](C)(C)CCOC(=O)c1ccccc1CBr.[I-]", "note": "[ortho Bromomethyl-, o-bromomethyl benzoyl choline iodide]", "values": [{"measurement": "INHIBITION", "setting": "[1]", "value": "None"}, {"measurement": "INHIBITION", "setting": "[2]", "value": "None"}]}
{"smiles": "C[N+](C)(C)CCOC(=O)c1ccc(CBr)c(CBr)c1", "note": "[3,4 Bromomethyl-, 3,4-di(bromomethyl)benzoyl choline iodide]", "values": [{"measurement": "inhibition at 100 µM", "setting": "[3]", "value": 90, "unit": "%"}, {"measurement": "inhibition at 1 µM", "setting": "40 min, Bromomethyl- reagent type, concentration 10^-^6 M", "value": 30, "unit": "%"}]}
{"smiles": "C[N+](C)(C)CCOC(=O)c1cccc(C=O)c1.[I-]", "note": "[meta Formyl-, m-formylbenzoyl choline iodide]", "values": [{"measurement": "inhibition at 1000 µM", "setting": "40 min, Formyl- reagent type, concentration 10^-^3 M", "value": 60, "unit": "%"}, {"measurement": "INHIBITION", "setting": "[6]", "value": "None"}]}
{"smiles": "C[N+](C)(C)CCOC(=O)c1ccc(C=O)c(C=O)c1.[I-]", "note": "[3,4 Formyl-, 3,4-diformylbenzoyl choline iodide]", "values": [{"measurement": "inhibition at 100 µM", "setting": "[4]", "value": 25, "unit": "%"}, {"measurement": "INHIBITION", "setting": "[5]", "value": "Complete"}]}
{"smiles": "C[N+](C)(C)CCOC(=O)c1cccc(C=O)c1C=O.[I-]", "note": "[2,3 Formyl-, 2,3-diformylbenzoyl choline iodide]", "values": [{"measurement": "inhibition at 100 µM", "setting": "[4]", "value": 50, "unit": "%"}, {"measurement": "INHIBITION", "setting": "[5]", "value": "Complete"}]}
{"smiles": "C[N+](C)(C)CCOC(=O)c1ccc(C=O)cc1C=O.[I-]", "note": "[2,4 Formyl-, 2,4-diformylbenzoyl choline iodide]", "values": [{"measurement": "inhibition at 100 µM", "setting": "[4]", "value": 50, "unit": "%"}, {"measurement": "INHIBITION", "setting": "[5]", "value": "Complete"}]}
{"smiles": "C[N+](C)(C)CCOC(=O)c1ccccc1C=O.[I-]", "note": "[ortho Formyl-, o-formylbenzoyl choline iodide]", "values": [{"measurement": "INHIBITION", "setting": "[5]", "value": "None"}, {"measurement": "INHIBITION", "setting": "[6]", "value": "None"}]}
{"smiles": "C[N+](C)(C)CCOC(=O)c1ccc(CBr)cc1CBr.[I-]", "note": "[2,4 Bromomethyl-, 2,4-di(bromomethyl)benzoyl choline iodide]", "values": [{"measurement": "INHIBITION", "setting": "[1]", "value": "Complete"}, {"measurement": "INHIBITION", "setting": "[2]", "value": "None"}]}
{"smiles": "C[N+](C)(C)CCOC(=O)c1cc(C=O)cc(C=O)c1.[I-]", "note": "[3,5 Formyl-, 3,5-diformylbenzoyl choline iodide]", "values": [{"measurement": "INHIBITION", "setting": "[5]", "value": "Complete"}, {"measurement": "INHIBITION", "setting": "[6]", "value": "Complete"}]}
{"smiles": "C[N+](C)(C)CCOC(=O)c1ccc(C=O)cc1.[Br-]", "note": "[para Formyl-, p-Formyl benzoyl choline bromide]", "values": [{"measurement": "INHIBITION", "setting": "[5]", "value": "Complete"}, {"measurement": "INHIBITION", "setting": "[6]", "value": "None"}]}
{"smiles": "C[N+](C)(C)CCOC(=O)c1cc(CBr)ccc1CBr.[I-]", "note": "[2,5 Bromomethyl-, 2,5-di(bromomethyl)benzoyl choline iodide]", "values": [{"measurement": "inhibition at 100 µM", "setting": "[3]", "value": 80, "unit": "%"}, {"measurement": "INHIBITION", "setting": "[2]", "value": "None"}]}
